According to US11667649B2, “Heteroaromatic macrocyclic ether chemotherapeutic agents” (Nuvalent, Inc., priority 2020, dated 2023):

System: TPM3-NTRK1-wt IC50 / primary target (e.g. CD74-ROS1-wt) IC50, Ba/F3 cells
Assay: Cell assay TRKA selectivity (TRKA potency divided by primary target potency)
Format: cell-based
Settings: for TPM3-NTRK1-wt/CD74-ROS1-G2032R: TRKA selectivity ratio: TPM3-NTRK1-wt IC50 / CD74-ROS1-G2032R IC50, Ba/F3 cells; for TPM3-NTRK1-wt/CD74-ROS1-wt: TRKA selectivity ratio: TPM3-NTRK1-wt IC50 / CD74-ROS1-wt IC50, Ba/F3 cells; for TPM3-NTRK1-wt/EML4-ALK-L1196M-G1202R: TRKA selectivity ratio: TPM3-NTRK1-wt IC50 / EML4-ALK-L1196M-G1202R IC50, Ba/F3 cells; for TPM3-NTRK1-wt/EML4-ALK-wt: TRKA selectivity ratio: TPM3-NTRK1-wt IC50 / EML4-ALK-wt IC50, Ba/F3 cells
Method in brief: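 Ratio of TRKA to primary-target cellular IC50 (e.g. TPM3-NTRK1-wt/CD74-ROS1-wt), grouped into bins A >30, B >10, C ≥1, D <1. Each IC50 came from engineered Ba/F3 fusion lines grown without IL-3, dosed for 72 h and read as CellTiter-Glo luminescence, with a four-parameter logistic fit.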

Compound	TPM3-NTRK1-wt/CD74-ROS1-G2032R	TPM3-NTRK1-wt/CD74-ROS1-wt	TPM3-NTRK1-wt/EML4-ALK-L1196M-G1202R	TPM3-NTRK1-wt/EML4-ALK-wt
CCn1ncc2c1-c1cnc(N)c(c1)O[C@H](C)c1cc(F)ccc1-n1nncc1C2 [Example 43, (19R)-3-ethyl-16-fluoro-19-methyl-20-oxa-3,4,10,11,12,23-hexaazapentacyclo[19.3.1.0^2,^6.0^8,^12.0^13,^18]pentacosa-1(24),2(6),4,8,10,13,15,17,21(25),22-decaen-22-amine]	A (bin A for very high selectivity, ratio>30-fold)	A (bin A for very high selectivity, ratio>30-fold)	C (bin C for moderate selectivity, ratio≥1)	B (bin B for high selectivity, ratio>10-fold)
CCn1nnc2c1-c1cnc(N)c(c1)O[C@H](C)c1cc(F)ccc1-c1nscc1C2 [Example 95, (19R)-3-ethyl-16-fluoro-19-methyl-20-oxa-10-thia-3,4,5,11,23-pentaazapentacyclo[19.3.1.0^2,^6.0^8,^12.0^13,^18]pentacosa-1(24),2(6),4,8,11,13,15,17,21(25),22-decaen-22-amine]	A (bin A for very high selectivity, ratio>30-fold)	A (bin A for very high selectivity, ratio>30-fold)	C (bin C for moderate selectivity, ratio≥1)	A (bin A for very high selectivity, ratio>30-fold)
Cc1nc2c(s1)Cn1cnc(C#N)c1-c1cnc(N)c(c1)O[C@H](C)c1cc(F)ccc1-2 [Example 65, (19R)-22-amino-16-fluoro-10,19-dimethyl-20-oxa-9-thia-4,6,11,23-tetraazapentacyclo[19.3.1.0^2,^6.0^8,^12.0^13,^18]pentacosa-1(24),2,4,8(12),10,13(18),14,16,21(25),22-decaene-3-carbonitrile]	A (bin A for very high selectivity, ratio>30-fold)	A (bin A for very high selectivity, ratio>30-fold)	B (bin B for high selectivity, ratio>10-fold)	A (bin A for very high selectivity, ratio>30-fold)
Cc1nn(CC2CC2)c2c1Cc1cn(C)nc1-c1ccc(F)cc1COc1cc-2cnc1N [Example 127, 3-(cyclopropylmethyl)-16-fluoro-5,10-dimethyl-20-oxa-3,4,10,11,23-pentaazapentacyclo[19.3.1.0^2,^6.0^8,^12.0^13,^18]pentacosa-1(24),2(6),4,8,11,13,15,17,21(25),22-decaen-22-amine]	A (bin A for very high selectivity, ratio>30-fold)	A (bin A for very high selectivity, ratio>30-fold)	A (bin A for very high selectivity, ratio>30-fold)	A (bin A for very high selectivity, ratio>30-fold)
C[C@H]1Oc2cc(cnc2N)-c2c(C#N)noc2Cc2cn(C)nc2-c2ccc(F)cc21 [Example 15, (19R)-22-amino-16-fluoro-10,19-dimethyl-5,20-dioxa-4,10,11,23-tetraazapentacyclo[19.3.1.0^2,^6.0^8,^12.0^13,^18]pentacosa-1(24),2(6),3,8,11,13(18),14,16,21(25),22-decaene-3-carbonitrile]	A (bin A for very high selectivity, ratio>30-fold)	A (bin A for very high selectivity, ratio>30-fold)	B (bin B for high selectivity, ratio>10-fold)	A (bin A for very high selectivity, ratio>30-fold)
C[C@H]1Oc2cc(cnc2N)-c2c(C#N)ncn2Cc2scnc2-c2ccc(F)cc21 [Example 64, (19R)-22-amino-16-fluoro-19-methyl-20-oxa-9-thia-4,6,11,23-tetraazapentacyclo[19.3.1.0^2,^6.0^8,^12.0^13,^18]pentacosa-1(24),2,4,8(12),10,13(18),14,16,21(25),22-decaene-3-carbonitrile]	A (bin A for very high selectivity, ratio>30-fold)	A (bin A for very high selectivity, ratio>30-fold)	B (bin B for high selectivity, ratio>10-fold)	A (bin A for very high selectivity, ratio>30-fold)
CCn1nc(Cl)c2c1-c1cnc(N)c(c1)O[C@H](C)c1cc(F)ccc1-c1nn(C)cc1C2 [Example 73, (19R)-5-chloro-3-ethyl-16-fluoro-10,19-dimethyl-20-oxa-3,4,10,11,23-pentaazapentacyclo[19.3.1.0^2,^6.0^8,^12.0^13,^18]pentacosa-1(24),2(6),4,8,11,13,15,17,21(25),22-decaen-22-amine]	A (bin A for very high selectivity, ratio>30-fold)	A (bin A for very high selectivity, ratio>30-fold)	B (bin B for high selectivity, ratio>10-fold)	A (bin A for very high selectivity, ratio>30-fold)
CCn1ncc2c1-c1cnc(N)c(c1)OCc1cc(F)ccc1-c1nccn1C2 [Example 34, 3-ethyl-16-fluoro-20-oxa-3,4,8,11,23-pentaazapentacyclo[19.3.1.0^2,^6.0^8,^12.0^13,^18]pentacosa-1(24),2(6),4,9,11,13,15,17,21(25),22-decaen-22-amine]	A (bin A for very high selectivity, ratio>30-fold)	A (bin A for very high selectivity, ratio>30-fold)	B (bin B for high selectivity, ratio>10-fold)	A (bin A for very high selectivity, ratio>30-fold)
C[C@H]1Oc2cc(cnc2N)-c2c(cnn2C2COC2)Cc2cn(C)nc2-c2ccc(F)cc21 [Example 139, (19R)-16-fluoro-10,19-dimethyl-3-(oxetan-3-yl)-20-oxa-3,4,10,11,23-pentaazapentacyclo[19.3.1.0^2,^6.0^8,^12.0^13,^18]pentacosa-1(24),2(6),4,8,11,13,15,17,21(25),22-decaen-22-amine]	A (bin A for very high selectivity, ratio>30-fold)	A (bin A for very high selectivity, ratio>30-fold)	C (bin C for moderate selectivity, ratio≥1)	A (bin A for very high selectivity, ratio>30-fold)
C[C@H]1Oc2cc(cnc2N)-c2c(cnn2CC2CC2)Cc2cc(C(F)(F)F)nn2-c2ccc(F)cc21 [Example 91, (19R)-3-(cyclopropylmethyl)-16-fluoro-19-methyl-10-(trifluoromethyl)-20-oxa-3,4,11,12,23-pentaazapentacyclo[19.3.1.0^2,^6.0^8,^12.0^13,^18]pentacosa-1(24),2(6),4,8,10,13,15,17,21(25),22-decaen-22-amine]	A (bin A for very high selectivity, ratio>30-fold)	A (bin A for very high selectivity, ratio>30-fold)	A (bin A for very high selectivity, ratio>30-fold)	A (bin A for very high selectivity, ratio>30-fold)
CCn1ncc2c1-c1ccc(F)cc1C(C)Oc1nc(cnc1N)-c1c(cnn1C)C2 (centres unmarked) [Example 165, 11-ethyl-16-fluoro-3,19-dimethyl-20-oxa-3,4,10,11,23,25-hexaazapentacyclo[19.3.1.0^2,^6.0^8,^12.0^13,^18]pentacosa-1(24),2(6),4,8(12),9,13,15,17,21(25),22-decaen-22-amine]	C (bin C for moderate selectivity, ratio≥1)	B (bin B for high selectivity, ratio>10-fold)	D (bin D for low selectivity, ratio<1)	C (bin C for moderate selectivity, ratio≥1)
C[C@H]1Oc2cc(cnc2N)-c2c(cnn2CC2(C)CC2)Cc2cn(C)nc2-c2ccc(F)cc21 [Example 159, (19R)-16-fluoro-10,19-dimethyl-3-[(1-methylcyclopropyl)methyl]-20-oxa-3,4,10,11,23-pentaazapentacyclo[19.3.1.0^2,^6.0^8,^12.0^13,^18]pentacosa-1(24),2(6),4,8,11,13,15,17,21(25),22-decaen-22-amine]	A (bin A for very high selectivity, ratio>30-fold)	A (bin A for very high selectivity, ratio>30-fold)	B (bin B for high selectivity, ratio>10-fold)	A (bin A for very high selectivity, ratio>30-fold)
CC1Oc2cc(cnc2N)-c2c(cnn2C)Cc2cnn(C)c2-c2ccc(F)cc21 (centres unmarked) [Example 2, 16-fluoro-3,11,19-trimethyl-20-oxa-3,4,10,11,23-pentaazapentacyclo[19.3.1.0^2,^6.0^8,^12.0^13,^18]pentacosa-1(24),2(6),4,8(12),9,13,15,17,21(25),22-decaen-22-amine]	B (bin B for high selectivity, ratio>10-fold)	A (bin A for very high selectivity, ratio>30-fold)	D (bin D for low selectivity, ratio<1)	B (bin B for high selectivity, ratio>10-fold)
C[C@H]1Oc2cc(cnc2N)-c2c(C#N)nn(C)c2Cc2cccnc2-c2ccc(F)cc21 [Example 100, (20R)-23-amino-17-fluoro-5,20-dimethyl-21-oxa-4,5,12,24-tetraazapentacyclo[20.3.1.0^2,^6.0^8,^13.0^14,^19]hexacosa-1(25),2(6),3,8(13),9,11,14,16,18,22(26),23-undecaene-3-carbonitrile]	A (bin A for very high selectivity, ratio>30-fold)	A (bin A for very high selectivity, ratio>30-fold)	A (bin A for very high selectivity, ratio>30-fold)	A (bin A for very high selectivity, ratio>30-fold)
